Assay results: ChEMBL document CHEMBL3351226, “Autumnalamide, a prenylated cyclic peptide from the cyanobacterium Phormidium autumnale, acts on SH-SY5Y cells at the mitochondrial level” (J Nat Prod, 2014)
Active and inactive are the calls of the source. The calls are words filed in the database; no cut-off is given here.

Columns and labels:
SH-SY5Y [1] = test: Induction of mitochondrial membrane potential loss in human SH-SY5Y cells at 10 uM incubated for 10 mins by TMRE dye based assay; assay type: functional
SH-SY5Y [2] = conditions: Homo sapiens, at 10 µM
Description: Inhibition of SOC in human SH-SY5Y cells assessed as reduction in thapsigargin-induced Ca2+ influx incubated for 5 mins at 10 uM by FURA-2AM dye based fluorescence assay

SH-SY5Y [3] = conditions: Homo sapiens, at 10 µM; remark: listed apart in the source
Description: Induction of mitochondrial membrane potential loss in human SH-SY5Y cells at 10 uM incubated for 10 mins in presence of 0.2 uM CsA by TMRE dye based assay

SH-SY5Y [4] = test: Inhibition of SOC in human SH-SY5Y cells assessed as reduction in thapsigargin-induced Ca2+ influx incubated for 5 mins at 5 uM by FURA-2AM dye based fluorescence assay; assay type: cell-based
[5] = target: Sodium channel protein type 8 subunit alpha (Homo sapiens) (UniProt Q9UQD0); test: Effect on human NaV1.6 expressed in HEK293 cells assessed as effect on sodium current by whole cell patch clamp electrophysiology method; assay type: cell-based
SH-SY5Y [6] = test: Inhibition of SOC in human SH-SY5Y cells assessed as reduction in thapsigargin-induced Ca2+ influx incubated for 5 mins at 10 uM in presence of 10 uM FCCP by FURA-2AM dye based fluorescence assay; assay type: cell-based
[7] = Cytotoxicity against human SH-SY5Y cells assessed as reduction in cell viability at 25 uM incubated for 1 hr by MTT assay; assay type: cell-based
SH-SY5Y [8] = conditions: Homo sapiens, at 10 µM; remark: listed apart in the source
Description: Inhibition of SOC in human SH-SY5Y cells assessed as reduction in thapsigargin-induced Ca2+ influx at 10 uM pre-incubated for 5 mins with 0.2 uM CsA followed by compound addition by FURA-2AM dye based fluorescence assay

[9] = Cytotoxicity against human SH-SY5Y cells assessed as reduction in cell viability at 0.1 to 20 uM incubated for 1 hr by MTT assay; assay type: cell-based
SH-SY5Y [10] = test: Effect on cytosolic Ca2+ level in human SH-SY5Y cells at 10 uM followed by 1 mM Ca2+ addition 5 mins after compound treatment by FURA-2AM dye based fluorescence assay; assay type: functional, cell-based
SH-SY5Y [11] = conditions: Homo sapiens, at 10 µM; remark: listed apart in the source
Description: Modulation of mitochondrial permeability transition pore opening in human SH-SY5Y cells assessed as reduction in calcein fluorescence at 10 uM in presence of 0.2 uM CsA by calcein-AM dye based confocal laser scanning microscopy

SH-SY5Y [12] = test: Effect on cytosolic Ca2+ level in human SH-SY5Y cells at 10 uM by FURA-2AM dye based fluorescence assay; assay type: functional, cell-based
SH-SY5Y [13] = test: Modulation of mitochondrial permeability transition pore opening in human SH-SY5Y cells assessed as reduction in calcein fluorescence at 10 uM by calcein-AM dye based confocal laser scanning microscopy; assay type: functional
SH-SY5Y [14] = test: Inhibition of SOC in human SH-SY5Y cells assessed as reduction in thapsigargin-induced Ca2+ influx incubated for 5 mins at 1 uM by FURA-2AM dye based fluorescence assay; assay type: cell-based
SH-SY5Y [15] = test: Inhibition of SOC in human SH-SY5Y cells assessed as reduction in thapsigargin-induced Ca2+ influx incubated for 5 mins at 10 uM in presence of 30 uM SKF96365 by FURA-2AM dye based fluorescence assay; assay type: cell-based
SH-SY5Y [16] = test: Effect on VGSC in human SH-SY5Y cells assessed as effect on total sodium current at 0.1 nM to 10 uM by whole cell patch clamp electrophysiology method; assay type: cell-based
SH-SY5Y [17] = test: Inhibition of SOC in human SH-SY5Y cells assessed as reduction in thapsigargin-induced Ca2+ influx incubated for 5 mins by FURA-2AM dye based fluorescence assay; assay type: cell-based
SH-SY5Y [18] = test: Inhibition of SOC in human SH-SY5Y cells assessed as reduction in thapsigargin-induced Ca2+ influx incubated for 5 mins at 30 uM by FURA-2AM dye based fluorescence assay; assay type: cell-based

Sodium channel protein type 8 subunit alpha (Homo sapiens), sequence (Q9UQD0 whole entry, looked up): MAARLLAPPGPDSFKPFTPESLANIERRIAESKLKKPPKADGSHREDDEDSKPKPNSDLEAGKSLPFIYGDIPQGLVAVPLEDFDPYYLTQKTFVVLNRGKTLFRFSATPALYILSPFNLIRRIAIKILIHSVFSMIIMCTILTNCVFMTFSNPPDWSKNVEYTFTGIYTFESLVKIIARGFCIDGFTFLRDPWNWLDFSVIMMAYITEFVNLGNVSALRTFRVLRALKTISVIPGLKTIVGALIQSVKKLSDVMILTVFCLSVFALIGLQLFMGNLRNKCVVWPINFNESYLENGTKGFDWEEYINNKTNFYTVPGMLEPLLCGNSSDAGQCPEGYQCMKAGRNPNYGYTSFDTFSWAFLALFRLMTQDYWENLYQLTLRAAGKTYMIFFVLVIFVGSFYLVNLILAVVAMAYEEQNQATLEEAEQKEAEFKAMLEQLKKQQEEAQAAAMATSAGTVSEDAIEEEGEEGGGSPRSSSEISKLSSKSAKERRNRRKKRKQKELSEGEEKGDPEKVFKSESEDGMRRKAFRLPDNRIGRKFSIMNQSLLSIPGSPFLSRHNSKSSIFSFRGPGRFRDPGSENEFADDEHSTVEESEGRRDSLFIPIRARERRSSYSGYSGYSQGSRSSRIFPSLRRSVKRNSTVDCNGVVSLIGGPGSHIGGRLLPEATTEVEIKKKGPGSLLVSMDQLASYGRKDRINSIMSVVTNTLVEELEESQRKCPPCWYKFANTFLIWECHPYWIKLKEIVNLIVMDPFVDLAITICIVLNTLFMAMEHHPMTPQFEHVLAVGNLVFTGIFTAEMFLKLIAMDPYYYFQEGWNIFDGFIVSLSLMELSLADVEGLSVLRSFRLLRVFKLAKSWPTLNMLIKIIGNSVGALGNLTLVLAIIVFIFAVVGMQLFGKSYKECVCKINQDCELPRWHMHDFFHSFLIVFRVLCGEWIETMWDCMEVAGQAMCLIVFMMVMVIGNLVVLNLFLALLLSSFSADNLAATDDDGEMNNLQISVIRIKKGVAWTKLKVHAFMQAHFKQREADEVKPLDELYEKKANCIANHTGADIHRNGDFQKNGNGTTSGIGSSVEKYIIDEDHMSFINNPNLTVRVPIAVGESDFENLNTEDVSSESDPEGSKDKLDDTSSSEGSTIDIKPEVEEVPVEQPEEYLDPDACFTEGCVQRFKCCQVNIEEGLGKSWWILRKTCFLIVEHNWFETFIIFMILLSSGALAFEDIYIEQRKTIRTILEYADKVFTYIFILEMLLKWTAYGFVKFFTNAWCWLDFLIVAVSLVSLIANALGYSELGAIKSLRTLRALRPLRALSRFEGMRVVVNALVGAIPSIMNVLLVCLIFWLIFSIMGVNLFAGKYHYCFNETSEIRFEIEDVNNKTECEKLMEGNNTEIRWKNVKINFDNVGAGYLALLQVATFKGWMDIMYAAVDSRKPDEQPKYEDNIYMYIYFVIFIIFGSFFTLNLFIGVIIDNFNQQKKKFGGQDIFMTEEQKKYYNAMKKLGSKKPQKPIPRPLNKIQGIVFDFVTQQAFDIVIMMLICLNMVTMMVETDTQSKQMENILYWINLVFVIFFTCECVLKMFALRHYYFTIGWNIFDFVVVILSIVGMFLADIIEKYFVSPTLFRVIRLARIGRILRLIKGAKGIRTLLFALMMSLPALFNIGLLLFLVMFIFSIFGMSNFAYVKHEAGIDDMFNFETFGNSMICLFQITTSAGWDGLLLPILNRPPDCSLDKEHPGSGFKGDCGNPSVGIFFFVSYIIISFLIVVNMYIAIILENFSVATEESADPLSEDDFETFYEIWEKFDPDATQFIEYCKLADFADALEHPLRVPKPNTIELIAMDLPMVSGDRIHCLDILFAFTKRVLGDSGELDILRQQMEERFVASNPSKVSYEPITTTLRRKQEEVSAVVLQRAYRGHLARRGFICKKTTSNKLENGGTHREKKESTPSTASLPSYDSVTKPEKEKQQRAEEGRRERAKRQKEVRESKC

Row | SMILES | inhibition at 10 µM (SH-SY5Y [1]) | inhibition (SH-SY5Y [2]) | inhibition (SH-SY5Y [3]) | inhibition (SH-SY5Y [4]) | Activity [5] | inhibition (SH-SY5Y [6]) | Activity [7] | inhibition (SH-SY5Y [8]) | Activity [9] | Activity (SH-SY5Y [10]) | inhibition (SH-SY5Y [11]) | Activity (SH-SY5Y [12]) | inhibition at 10 µM (SH-SY5Y [13]) | inhibition (SH-SY5Y [14]) | inhibition (SH-SY5Y [15]) | Activity (SH-SY5Y [16]) | inhibition (SH-SY5Y [17]) | inhibition (SH-SY5Y [18])
1 | CC(C)=CCNC(=N)NCCC[C@H]1NC(=O)[C@H](Cc2ccccc2)NC(=O)[C@H](CC(=O)O)NC(=O)[C@H](CC(C)C)NC(=O)CNC(=O)[C@H]2CCCN2C(=O)[C@H](Cc2ccccc2)NC1=O | 36% | Active | inactive | 33% | inactive | 72% | 42% | inactive | Non-toxic | inactive | inactive | inactive | 30% | inactive | Active | inactive | Dose-dependent effect | –
2 | N#CC(C#N)=NNc1ccc(OC(F)(F)F)cc1 | 68% | 51% | Active | – | – | – | – | Active | – | – | inactive | – | 20% | – | – | – | – | –
3 | COc1ccc(CCCOC(Cn2ccnc2)c2ccc(OC)cc2)cc1 (centres undefined) | – | – | – | – | – | – | – | – | – | – | – | – | – | – | – | – | – | Active
